In PubChem BioAssay AID651672 (The Scripps Research Institute Molecular Screening Center, 2012):
pIC50: −log10 of the molar value. Where “and” joins values, the source holds several entries; their conditions need not be identical. Identical values can stand only once. Calls of active or inactive are those of the source. How the calls were made is not given here.

Molecular target: Perilipin-1 (Homo sapiens) (UniProt O60240)
Assay: inhibitors of ABHD5-PLIN1 binding, dose response, counter-screen for ABHD5-PLIN5 interaction inhibitor project, biochemical, luminescence (AID 651672);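 further: split Gaussia luciferase complementation between ABHD5 and PLIN1 fusion fragments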

Perilipin-1 (Homo sapiens), sequence (O60240 whole entry, looked up, the tested form may be a part): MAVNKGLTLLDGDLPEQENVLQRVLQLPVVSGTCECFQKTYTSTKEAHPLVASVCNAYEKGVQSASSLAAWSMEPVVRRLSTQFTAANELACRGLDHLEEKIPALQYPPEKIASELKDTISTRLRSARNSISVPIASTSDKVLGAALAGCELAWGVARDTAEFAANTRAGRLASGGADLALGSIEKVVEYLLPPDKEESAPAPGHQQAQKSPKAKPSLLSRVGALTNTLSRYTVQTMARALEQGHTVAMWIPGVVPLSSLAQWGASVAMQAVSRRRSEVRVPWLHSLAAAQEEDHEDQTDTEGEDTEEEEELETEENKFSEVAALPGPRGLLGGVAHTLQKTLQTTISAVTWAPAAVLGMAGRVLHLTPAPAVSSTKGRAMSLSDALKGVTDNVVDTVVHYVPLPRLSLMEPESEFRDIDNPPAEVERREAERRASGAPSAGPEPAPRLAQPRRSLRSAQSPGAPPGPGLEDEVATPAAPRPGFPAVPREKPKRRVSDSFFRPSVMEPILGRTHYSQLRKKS

| Compound | IC50 | pIC50 |
| --- | --- | --- |
| COc1ccc(NC(=S)N(CCCN2CCCC2)Cc2cccn2Cc2ccc(Cl)cc2)cc1Cl | inactive | – |
| NC(=NCCCCCCN=C(N)/N=C(\N)Nc1ccc(Cl)cc1)/N=C(\N)Nc1ccc(Cl)cc1 | – | 5.54 and 5.64 |
| CN(C)CCOC1(Cc2ccc(F)cc2)CCC(C(C)(C)C)CC1 (stereo not drawn) | – | 5.00 |
| CCOC(=O)C1C(OC(=O)c2ccccc2)CC2CCC1N2C (stereo not drawn) | inactive | – |
| CC(C)(C)NC(=O)C(c1cc2ccccc2o1)n1c(=O)c(-c2ccco2)nc2ccccc21 (stereo not drawn) | – | 5.71 |
| CCCC(=O)NC(c1cccc([N+](=O)[O-])c1)c1ccc2cccnc2c1O (stereo not drawn) | > 39.8 µM (inactive) | – |
| C#CCN(C[C@@H]1[C@@H](OC(=O)NCc2ccc(OC)c(OC)c2)[C@@H](OC(=O)NCc2ccc(OC)c(OC)c2)Cn2c(=O)ccc(=O)n21)S(=O)(=O)c1ccc(C)cc1 | – | 5.34 |
| CCCCn1c(SCC(=O)NCc2ccco2)nnc1-c1ccoc1C | – | 5.33 |
| O=C(/C=C/c1ccc(NC(=O)c2ccccc2-c2ccccc2C(=O)O)cc1)c1ccccc1 | – | 5.10 |
| CC(=O)Cc1cc(O)c2ccccc2c1OC(=O)c1ccc(Br)cc1 | – | 5.80 |
| CC(C)(C)NC(=O)C(c1ccccc1F)n1c(=O)c(-c2ccco2)nc2ccccc21 (stereo not drawn) | – | 5.64 |
| CN(C)CCCN(C(=O)CCc1ccccc1)c1nc2ccc(Br)cc2s1 | – | 5.07 |
| Cc1ccc(C)c(/C=C/C(=O)c2ccccc(=O)c2O)c1 | – | 5.25 |
| O=C(NC1CCCCC1)C(c1ccccc1F)n1c(=O)c(-c2ccco2)nc2ccccc21 (stereo not drawn) | – | 5.72 |
| CCCc1nnc(NC(=O)c2nc(S(=O)(=O)Cc3cccc(C)c3)ncc2Cl)s1 | – | 5.55 |
| O=S(=O)(NC1=NCCCCC1)c1ccc2sc(NS(=O)(=O)c3ccc4ccccc4c3)nc2c1 | inactive | – |
| c1ccc(CCC2=NCCn3cccc32)cc1 | inactive | – |
| O=C1NC(=O)N(Cc2ccc(F)cc2)C(=O)/C1=C\C=C\c1ccco1 | – | 5.77 |
| CSc1nnc(NC(=O)c2nc(S(=O)(=O)Cc3ccccc3)ncc2Cl)s1 | – | 5.49 |
| N#Cc1ccc(C(C(=O)Nc2ccc3c(c2)OCCO3)n2c(=O)c(-c3ccco3)nc3ccccc32)cc1 (stereo not drawn) | – | 5.14 |
| Cc1oc2c(c1C(=O)c1ccc(Cl)cc1)C(=O)C(=O)c1ccccc1-2 | – | 5.40 |
| CCCCOC(=O)Nc1cc(C(=O)OC)ccc1C(=O)OC | – | 5.22 |
| Cc1ccc(C(=O)c2c(C)oc3c2C(=O)C(=O)c2ccccc2-3)cc1 | – | 5.27 |
| C#CCN(C[C@@H]1[C@@H](OC(=O)NCCCCCC)[C@@H](OC(=O)NCCCCCC)Cn2c(=O)ccc(=O)n21)S(=O)(=O)c1ccc(C)cc1 | – | 5.22 |
| CCCCNC(=O)Nc1ccc2c(c1)N(C)C(=O)c1ccccc1S2 | – | 5.50 |

| Compound | IC50 | pIC50 |
| --- | --- | --- |
| CN1CCC(=C2c3ccccc3CC(=O)c3sccc32)CC1 | inactive | – |
| CC1CCN(S(=O)(=O)c2ccc(NC(=O)Cc3ccccc3)cc2)CC1 | – | 5.27 |
| Cc1cccc(C)c1NC(=O)C(c1ccc(-c2ccccc2)cc1)n1c(=O)c(-c2ccco2)nc2ccccc21 (stereo not drawn) | – | 5.83 |
| CSc1nnc(NC(=O)c2nc(S(=O)(=O)Cc3ccc(C)cc3)ncc2Cl)s1 | – | 5.51 |
| Cc1ccc(SC2=C(Sc3ccc(C)cc3)C(=O)c3ccccc3C2=O)cc1 | – | 5.17 |
| O=C(NC1CCCCC1)C(c1ccc(-c2ccccc2)cc1)n1c(=O)c(-c2ccco2)nc2ccccc21 (stereo not drawn) | – | 5.73 |
| CCN1CCN(Cc2ccc(NC(=O)c3ccc(C)c(/C=C/c4cnc(Nc5cc(N6CCNCC6)nc(C)n5)cn4)c3)cc2C(F)(F)F)CC1 | – | 5.47 |
| CSC(=Nc1ccccc1)N=C(SCc1ccccc1)N(C)C | – | 5.93 |
| Cc1ccc(C(=O)/C=C/c2cc(Br)cc(Br)c2O)o1 | – | 5.24 |
| CCN(CC)CCN(CC(=O)Nc1c(C)cc(C)cc1C)C(=O)c1ccccc1 | inactive | – |
| CCOC(=O)C1CCCN(C(=O)c2cc(Nc3ccc(OC)cc3)nc3ccccc23)C1 (stereo not drawn) | inactive | – |
| C#CCN(C[C@@H]1[C@@H](OC(=O)NCc2ccccc2F)[C@@H](OC(=O)NCc2ccccc2F)Cn2c(=O)ccc(=O)n21)S(=O)(=O)c1ccc(C)cc1 | – | 5.35 |
| CC1=CC(C)(C)Nc2ccc(OC(=O)CN3C(=O)C4CCCCC4C3=O)cc21 (stereo not drawn) | – | 5.64 |
| CCC(C)NC(=O)Nc1ccc2c(c1)N(C)C(=O)c1ccccc1S2 (stereo not drawn) | – | 5.43 |
| O=C(/C(=C/c1ccccc1)n1cncn1)c1ccc(Cl)cc1Cl | – | 5.64 |
| CCN(CC)CCNC(=O)c1ccc(NC(=O)c2cn(-c3ccccc3)nc2-c2cccs2)cc1 | inactive | – |
| COCCNC(=O)/C(C#N)=C/c1cccc(/C=C(\C#N)C(=O)NCCOC)c1 | – | 6.09 |
| CCN(CCCc1ccccc1)CCCc1ccccc1 | – | 5.65 |
| CC(C)(C)NC(=O)C(C1CC1)n1c(=O)c(-c2ccco2)nc2ccccc21 (stereo not drawn) | – | 5.38 |
| CCOC(=O)N1CCN(C(=O)C[C@@H]2C[C@@]3(C(=O)OCC)CCC=C3N(Cc3ccc(Cl)cc3Cl)C2=O)CC1 | – | 5.01 |
| Cc1ccc(S(=O)(=O)N2C[C@H]3n4c(=O)ccc(=O)n4C[C@H](OC(=O)Nc4cccs4)[C@@]3(O)C2)cc1 | – | 5.19 |
| COC(=O)c1ccc(Cn2cc(/C=C\[N+](=O)[O-])c3ccccc32)o1 | > 13.3 µM (inactive) | – |
| C#CCN(C[C@@H]1[C@@H](OC(=O)NCC2CCCCC2)[C@@H](OC(=O)NCC2CCCCC2)Cn2c(=O)ccc(=O)n21)S(=O)(=O)c1ccc(C)cc1 | – | 5.32 |
| Cc1cc(C)c2nc(NNC(=O)c3ccc(S(=O)(=O)N4CCCC(C)C4)cc3)sc2c1 (stereo not drawn) | – | 5.52 |
| Cc1ccc(O)c(C(=O)C=Cc2ccccc2)c1 | – | 5.61 |

| Compound | IC50 | pIC50 |
| --- | --- | --- |
| COc1ccc(NC(=O)C(c2ccc(OC)cc2)n2c(=O)c(-c3ccco3)nc3ccccc32)cc1 (stereo not drawn) | – | 5.11 |
| COc1ccc(NC(=O)C(c2cccc3ccccc23)n2c(=O)c(-c3ccco3)nc3ccccc32)cc1 (stereo not drawn) | inactive | – |
| CC1CCN(S(=O)(=O)c2ccc(NC(=O)Cc3cccs3)cc2)CC1 | – | 5.15 |
| CC1Sc2ccc(S(=O)(=O)N3CCC(C(=O)NCc4ccc(Cl)cc4)CC3)cc2NC1=O (stereo not drawn) | – | 5.08 |
| CCc1nnc(NC(=O)c2nc(S(=O)(=O)Cc3ccccc3)ncc2Cl)s1 | – | 5.37 |
| O=C(NC1CCCCC1)C(C1CC1)n1c(=O)c(-c2ccco2)nc2ccccc21 (stereo not drawn) | – | 5.51 |
| O=C1/C(=C/c2cccnc2)CC/C1=C\c1cccnc1 | – | 5.23 |
| Cc1ccc2c(CC(=O)N3CCN(S(=O)(=O)c4ccc5c(c4)OCCO5)CC3)coc2c1 | – | 5.29 |
| C=C1C(=O)O[C@H]2C[C@H]1[C@@H](OC(C)=O)C/C(C)=C/CC/C(C)=C\CC[C@]2(C)O | – | 5.73 |
| O=C(NC1CCCCC1)C(c1ccccc1)n1c(=O)c(-c2ccco2)nc2ccccc21 (stereo not drawn) | – | 6.02 |
| O=C(/C=C/c1ccc2c(c1)OCCCO2)c1ccccc1O | – | 5.26 |
| CC(C)c1ccc(N2C=Nc3ccc(C(C)C)cc3C2)cc1 | – | 5.10 |
| O=C1NC(=O)N(c2ccccc2F)C(=O)/C1=C/c1ccc(Oc2ccc([N+](=O)[O-])cn2)cc1 | – | 5.56 |
| COc1ccc(OCc2cn(CC(=O)c3ccc(O)cc3)nn2)cc1 | – | 5.42 |
| CCCCCNC(=O)C(c1cc2ccccc2o1)n1c(=O)c(-c2ccco2)nc2ccccc21 (stereo not drawn) | – | 5.83 |
| Cc1nc(-c2ccccc2)sc1C(=O)/C=C/c1ccccc1 | – | 5.56 |
| NC(=O)C(C(=O)/C=C/c1ccc(Cl)cc1)=C1SCCS1 | inactive | – |
| CCSc1nnc(NC(=O)c2nc(S(=O)(=O)Cc3ccc(F)cc3)ncc2Cl)s1 | – | 5.57 |
| O=C(O)CC(O)(CC(=O)O)C(=O)O | – | 5.43 |
| C#CCOCCOCCOCCNc1nc(N2CCN(C(=O)CCCCCCCCCCNC(=O)[C@@H](CCSC)n3cc(CCO)nn3)CC2)nc(N2CCN(C(=O)CCCCCCCCCCNC(=O)[C@@H]([C@H](C)O)n3cc(C)nn3)CC2)n1 | inactive | – |
| COCCN(CCOC)c1nc(N)c2c(N)nc3c(c2c1C#N)CC(=O)N3Cc1ccc(Cl)cc1 | – | 5.18 |
| COc1ccc(NC(=O)c2cc3ccccc3cc2O)cc1 | inactive | – |
| O=c1c(-c2ccco2)nc2ccccc2n1C(CCc1ccccc1)c1nc2ccccc2[nH]1 (stereo not drawn) | – | 5.63 |
| O=C(CF)N(O)c1ccc(C=Cc2ccccc2)cc1 | > 13.3 µM (inactive) | – |
| N#Cc1ccc(C(C(=O)NC2CCCCC2)n2c(=O)c(-c3ccco3)nc3ccccc32)cc1 (stereo not drawn) | – | 5.72 |

| Compound | IC50 | pIC50 |
| --- | --- | --- |
| O=C(NCc1ccccc1)C(c1ccc(-c2ccccc2)cc1)n1c(=O)c(-c2ccco2)nc2ccccc21 (stereo not drawn) | – | 5.46 |
| O=C(NCc1ccccc1)C(C1CC1)n1c(=O)c(-c2ccco2)nc2ccccc21 (stereo not drawn) | – | 5.22 |
| CCN(CC)CCOCCOC(=O)C1(c2ccccc2)CCCC1 | – | 5.73 |
| CC(=O)OCC1=C(C(=O)O)N2C(=O)C(NC(=O)CCn3nc(C(F)(F)F)c(Br)c3C3CC3)C2SC1 (stereo not drawn) | – | 5.09 |
| CN(C)CCN(Cc1ccco1)c1ccccn1 | inactive | – |
| CC1=CC(C)(C)Nc2ccc(OC(=O)CN3C(=O)c4cccc5cccc(c45)C3=O)cc21 | – | 5.19 |
| CC(=O)Nc1ccc(S(=O)(=O)N2c3ccc(F)cc3CCC2C)cc1 (stereo not drawn) | inactive | – |
| O=C(NC1CCCCC1)C(c1ccc(C(F)(F)F)cc1)n1c(=O)c(-c2ccco2)nc2ccccc21 (stereo not drawn) | – | 5.78 |
| O=C(NCc1ccccc1)C(c1cccc2ccccc12)n1c(=O)c(-c2ccco2)nc2ccccc21 (stereo not drawn) | – | 5.69 |
| NC(=O)CCN1CCN(CCOC2Cc3cc(Cl)ccc3Sc3ccccc32)CC1 (stereo not drawn) | inactive | – |
| CC(c1nc2ccccc2[nH]1)n1c(=O)c(-c2ccco2)nc2ccccc21 (stereo not drawn) | – | 5.47 |
| CC1=CC(C)(C)Nc2ccc(OC(=O)c3cccnc3)cc21 | – | 5.71 |
| Cc1cc(C)c(NC(=O)CN2CCN3CCCC3C2)c(C)c1 (stereo not drawn) | inactive | – |
| CC(O)CC(=O)OC[C@]12CC[C@H]3[C@@](C)(CC[C@H]4C(C)(C)CCC[C@]34C)[C@@H]1CC(C1=CC(=O)OC1O)O2 (stereo partly drawn) | – | 5.90 |
| CN(C)CCCN(C(=O)CCc1ccccc1)c1nc2ccc(Cl)cc2s1 | – | 5.16 |
| O=C(NC1CCCCC1)C(c1ccnc2ccccc12)n1c(=O)c(-c2ccco2)nc2ccccc21 (stereo not drawn) | – | 5.65 |
| O=C(NC1CCCCC1)C(c1cc2ccccc2o1)n1c(=O)c(-c2ccco2)nc2ccccc21 (stereo not drawn) | – | 5.89 |
| O=C1C(=O)c2c(C(=O)c3ccccc3)coc2-c2ccccc21 | – | 5.30 |
| CC(C)c1nnc(NC(=O)c2nc(S(=O)(=O)Cc3ccc(F)cc3)ncc2Cl)s1 | – | 5.55 |
| Cc1ccc(CC2(OCCN(C)C)CCC(C(C)(C)C)CC2)cc1 (stereo not drawn) | – | 5.02 |
| O=C(NCc1ccccc1)C(c1cc2ccccc2o1)n1c(=O)c(-c2ccco2)nc2ccccc21 (stereo not drawn) | – | 5.64 |
| CC1=CC(C)(C)Nc2ccc(OC(=O)CN3C(=O)CCC3=O)cc21 | – | 5.76 |
| CC(C)(C)NC(=O)C(c1ccncc1)n1c(=O)c(-c2ccco2)nc2ccccc21 (stereo not drawn) | – | 5.62 |
